The term IC50 denotes the midpoint of a concentration-inhibition curve. A lower IC50 goes with greater potency in that assay.

ROCK2, sequence (O75116 whole entry, species assumed): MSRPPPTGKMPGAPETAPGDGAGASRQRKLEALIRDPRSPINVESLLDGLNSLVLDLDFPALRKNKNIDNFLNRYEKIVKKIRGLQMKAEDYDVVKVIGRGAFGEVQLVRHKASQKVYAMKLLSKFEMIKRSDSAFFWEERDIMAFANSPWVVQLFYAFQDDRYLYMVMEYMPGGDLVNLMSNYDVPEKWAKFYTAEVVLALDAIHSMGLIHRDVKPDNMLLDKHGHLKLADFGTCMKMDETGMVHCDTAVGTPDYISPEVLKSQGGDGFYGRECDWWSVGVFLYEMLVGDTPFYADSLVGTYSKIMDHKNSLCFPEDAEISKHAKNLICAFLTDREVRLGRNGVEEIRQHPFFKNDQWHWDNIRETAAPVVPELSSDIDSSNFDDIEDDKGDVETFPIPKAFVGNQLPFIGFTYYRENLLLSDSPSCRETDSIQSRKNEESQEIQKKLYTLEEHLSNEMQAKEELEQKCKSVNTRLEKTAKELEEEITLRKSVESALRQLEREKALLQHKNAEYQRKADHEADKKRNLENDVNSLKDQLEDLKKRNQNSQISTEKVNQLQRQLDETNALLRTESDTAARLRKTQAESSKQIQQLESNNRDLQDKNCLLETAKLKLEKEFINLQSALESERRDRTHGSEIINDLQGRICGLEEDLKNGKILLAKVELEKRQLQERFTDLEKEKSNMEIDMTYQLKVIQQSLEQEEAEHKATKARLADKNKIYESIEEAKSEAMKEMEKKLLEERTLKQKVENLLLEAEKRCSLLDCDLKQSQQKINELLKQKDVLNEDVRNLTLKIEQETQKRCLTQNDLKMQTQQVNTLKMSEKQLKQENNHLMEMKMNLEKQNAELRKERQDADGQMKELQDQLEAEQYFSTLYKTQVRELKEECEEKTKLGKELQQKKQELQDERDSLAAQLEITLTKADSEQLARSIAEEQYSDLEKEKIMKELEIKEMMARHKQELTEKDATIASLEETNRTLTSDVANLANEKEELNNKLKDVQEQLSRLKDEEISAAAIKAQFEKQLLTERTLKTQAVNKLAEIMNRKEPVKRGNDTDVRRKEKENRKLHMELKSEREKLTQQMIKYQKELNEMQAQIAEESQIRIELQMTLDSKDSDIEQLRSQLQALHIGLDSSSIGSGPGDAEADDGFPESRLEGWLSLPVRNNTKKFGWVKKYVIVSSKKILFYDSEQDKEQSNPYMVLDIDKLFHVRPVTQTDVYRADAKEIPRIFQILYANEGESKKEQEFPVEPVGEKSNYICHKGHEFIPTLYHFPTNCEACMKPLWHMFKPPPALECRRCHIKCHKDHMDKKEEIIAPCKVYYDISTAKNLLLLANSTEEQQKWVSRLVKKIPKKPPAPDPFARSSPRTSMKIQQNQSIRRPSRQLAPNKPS

The experiment has as its target ROCK2 (Homo sapiens (Human), UniProt O75116). Briefly: ROCK2 kinase inhibition assay (LABCHIP peptide phosphorylation). In kind it is biochemical. The following applies: 5 μM ATP, 1.5 μM peptide substrate. As for the experimental part:
The effectiveness of compounds of the present invention as ROCK inhibitors can be determined in a 30 μL, assay containing 20 mM HEPES, pH 7.5, 20 mM MgCl2, 0.015% Brij-35, 4 mM DTT, 5 μM ATP and 1.5 μM peptide substrate (FITC-AHA-AKRRRLSSLRA-OH). Compounds were dissolved in DMSO so that the final concentration of DMSO was <2%, and the reaction was initiated with Rho kinase variants. After incubation, the reaction was terminated by the addition of EDTA and the phosphorylated and non-phosphorylated peptides separated using a LABCHIP® 3000 Reader (Caliper Life Sciences). […] Compounds were tested in dose-response format, and the inhibition of kinase activity was calculated at each concentration of compound. The inhibition data were fit using a curve-fitting program to determine the IC50; i.e., the concentration of compound required to inhibit 50% of kinase activity.
Representative Examples were tested in the ROCK2 assay described above and found having ROCK2 inhibitory activity. The ranges of the ROCK2 IC50 values are as follows: ROCK2 IC50: ++++(<10 nM)+++(10-100 nM)++(100-500 nM)+(500-2000 nM)
`COc1cccc(CN2CCN(c3ccc4c(n3)OCc3n[nH]cc3-4)C2=O)c1` [Example 15, 1-(2,4-dihydropyrazolo[4′,3′:4,5]pyrano[2,3-b]pyridin-7-yl)-3-(3-methoxybenzyl)imidazolidin-2-one] had an IC50 of less than 10 nM. As for `CC(C)(C)c1cccc(CN2CCN(c3ccc4c(n3)OCc3n[nH]cc3-4)C2=O)c1` [Example 31, 1-(3-(tert-butyl)benzyl)-3-(2,4-dihydropyrazolo[4′,3′:4,5]pyrano[2,3-b]pyridin-7-yl)imidazolidin-2-one], the figure is 500 to 2000 nM; as for `O=C1N(c2ccc3c(c2)CCc2n[nH]cc2-3)CCC12Cc1ccccc1N2` (racemic) [Example 1, (rac)-1′-(4,5-dihydro-2H-benzo[e]indazol-7-yl)spiro[indoline-2,3′-pyrrolidin]-2′-one], less than 10 nM; as for `COc1cccc(NC2CCN(c3ccc4c(c3)OCc3n[nH]cc3-4)C2=O)c1` (single isomer, unassigned) [Example 10, 1-(2,4-dihydrochromeno[3,4-c]pyrazol-7-yl)-3-((3-methoxyphenyl)amino)pyrrolidin-2-one], less than 10 nM. As for `COc1cccc([C@@H](C)N2CCN(c3ccc4c(c3)CCc3n[nH]cc3-4)C2=O)c1` [Example 7, (R)-1-(4,5-dihydro-2H-benzo[e]indazol-7-yl)-3-(1-(3-methoxyphenyl)ethyl)imidazolidin-2-one], the figure is less than 10 nM.

`Cc1ccc(F)c(CN2CCN(c3ccc4c(n3)OCc3n[nH]cc3-4)C2=O)c1` [Example 20, 1-(2,4-dihydropyrazolo[4′,3′:4,5]pyrano[2,3-b]pyridin-7-yl)-3-(2-fluoro-5-methylbenzyl)imidazolidin-2-one] displayed an IC50 of 10 to 100 nM. As to `COc1cccc(NC2CCN(c3ccc4c(c3)OCc3n[nH]cc3-4)C2=O)c1` (racemic) [Example 13, 1-(2,4-dihydrochromeno[3,4-c]pyrazol-7-yl)-3-((3-methoxyphenyl)amino)pyrrolidin-2-one], the IC50 was less than 10 nM. As for `Cc1cc(CN2CCN(c3ccc4c(n3)OCc3n[nH]cc3-4)C2=O)ccc1F` [Example 26, 1-(2,4-dihydropyrazolo[4′,3′:4,5]pyrano[2,3-b]pyridin-7-yl)-3-(4-fluoro-3-methylbenzyl)imidazolidin-2-one], the figure is 100 to 500 nM; as for `COc1cccc(CN2CCN(c3ccc4c(c3)CCc3n[nH]c(C)c3-4)C2=O)c1` [Example 19, 1-(3-methoxybenzyl)-3-(1-methyl-4,5-dihydro-2H-benzo[e]indazol-7-yl)imidazolidin-2-one], 10 to 100 nM. On to `O=C1C(Nc2ccc3ncsc3c2)CCN1c1ccc2c(n1)OCc1n[nH]cc1-2` (racemic) [Example 32, 3-(benzo[d]thiazol-6-ylamino)-1-(2,4-dihydropyrazolo[4′,3′:4,5]pyrano[2,3-b]pyridin-7-yl)pyrrolidin-2-one], for which the concentration for half-maximal inhibition (IC50) was in the range of 500 to 2000 nM. `O=C1N(c2ccc3c(c2)CCc2n[nH]cc2-3)CCC12Cc1ccccc1N2` (single isomer, unassigned) [Example 16, 1′-(4,5-dihydro-2H-benzo[e]indazol-7-yl)spiro[indoline-2,3′-pyrrolidin]-2′-one] gave an IC50 of 10 to 100 nM. `COc1cccc(NC2CCN(c3ccc4c(c3)OCc3n[nH]cc3-4)C2=O)c1` (single isomer, unassigned) [Example 17, 1-(2,4-dihydrochromeno[3,4-c]pyrazol-7-yl)-3-((3-methoxyphenyl)amino)pyrrolidin-2-one] showed an IC50 of 10 to 100 nM.

As to `COc1cccc(NC2CCN(c3ccc4c(n3)OCc3n[nH]cc3-4)C2=O)c1` (racemic) [Example 11, 1-(2,4-dihydropyrazolo[4′,3′:4,5]pyrano[2,3-b]pyridin-7-yl)-3-((3-methoxyphenyl)amino)pyrrolidin-2-one], the IC50 was 10 to 100 nM. As for `O=C1N(Cc2ccc(F)c(F)c2)CCN1c1ccc2c(n1)OCc1n[nH]cc1-2` [Example 29, 1-(3,4-difluorobenzyl)-3-(2,4-dihydropyrazolo[4′,3′:4,5]pyrano[2,3-b]pyridin-7-yl)imidazolidin-2-one], the figure is 100 to 500 nM; as for `COc1cccc(N[C@H]2CCN(c3ccc4c(c3)CCc3n[nH]cc3-4)C2=O)c1` [Example 3, (S)-1-(4,5-dihydro-21-benzo[e]indazol-7-yl)-3-((3-methoxyphenyl)amino)pyrolidin-2-one], less than 10 nM; as for `Cc1c(F)cccc1NC1CCN(c2ccc3c(n2)OCc2n[nH]cc2-3)C1=O` (stereo not drawn) [Example 24, 1-(2,4-dihydropyrazolo[4′,3′:4,5]pyrano[2,3-b]pyridin-7-yl)-3-((3-fluoro-2-methylphenyl)amino)pyrrolidin-2-one], 100 to 500 nM. Under `O=C1N(Cc2cccc(F)c2)CCN1c1ccc2c(n1)OCc1n[nH]cc1-2` [Example 25, 1-(2,4-dihydropyrazolo[4′,3′:4,5]pyrano[2,3-b]pyridin-7-yl)-3-(3-fluorobenzyl)imidazolidin-2-one] stands 100 to 500 nM; under `O=C1C(Nc2cccc(-c3cnco3)c2)CCN1c1ccc2c(n1)OCc1n[nH]cc1-2` (racemic) [Example 35, 1-(2,4-dihydropyrazolo[4′,3′:4,5]pyrano[2,3-b]pyridin-7-yl)-3-((3-(oxazol-5-yl)phenyl)amino)pyrrolidin-2-one], 500 to 2000 nM. In turn, `NC(=O)c1cccc(CN2CCN(c3ccc4c(n3)OCc3n[nH]cc3-4)C2=O)c1` [Example 23, ((3-(2,4-dihydropyrazolo[4′,3′:4,5]pyrano[2,3-b]pyridin-7-yl)-2-oxoimidazolidin-1-yl)methyl)benzamide] registered an IC50 of 10 to 100 nM. In turn, `COc1cc(F)cc(CN2CCN(c3ccc4c(n3)OCc3n[nH]cc3-4)C2=O)c1` [Example 18, 1-(2,4-dihydropyrazolo[4′,3′:4,5]pyrano[2,3-b]pyridin-7-yl)-3-(3-fluoro-5-methoxybenzyl)imidazolidin-2-one] gave an IC50 of 10 to 100 nM.

The compound `COc1cccc(CN2CCN(c3ccc4c(n3)CCc3n[nH]cc3-4)C2=O)c1` [Example 8, 1-(4,5-dihydro-2H-pyrazolo[4,3-f]quinolin-7-yl)-3-(3-methoxybenzyl)imidazolidin-2-one] showed a half-maximal inhibitory concentration (IC50) of less than 10 nM. As for `O=C1N(Cc2c(F)cccc2F)CCN1c1ccc2c(n1)OCc1n[nH]cc1-2` [Example 33, 1-(2,6-difluorobenzyl)-3-(2,4-dihydropyrazolo[4′,3′:4,5]pyrano[2,3-b]pyridin-7-yl)imidazolidin-2-one], the figure is 500 to 2000 nM; as for `Cc1cc(F)ccc1CN1CCN(c2ccc3c(n2)OCc2n[nH]cc2-3)C1=O` [Example 28, 1-(2,4-dihydropyrazolo[4′,3′:4,5]pyrano[2,3-b]pyridin-7-yl)-3-(4-fluoro-2-methylbenzyl)imidazolidin-2-one], 100 to 500 nM. Take `COc1cc(F)cc(NC2CCN(c3ccc4c(n3)OCc3n[nH]cc3-4)C2=O)c1` (racemic) [Example 12, 1-(2,4-dihydropyrazolo[4′,3′:4,5]pyrano[2,3-b]pyridin-7-yl)-3-((3-fluoro-5-methoxyphenyl)amino)pyrrolidin-2-one]: the IC50 is 10 to 100 nM.

`O=C1N(Cc2cc(F)ccc2F)CCN1c1ccc2c(n1)OCc1n[nH]cc1-2` [Example 30, 1-(2,5-difluorobenzyl)-3-(2,4-dihydropyrazolo[4′,3′:4,5]pyrano[2,3-b]pyridin-7-yl)imidazolidin-2-one] displayed an IC50 of 100 to 500 nM. `COc1cccc(CNC(=O)Nc2ccc3c(n2)OCc2n[nH]cc2-3)c1` [Example 5, 1-(2,4-dihydropyrazolo[4′,3′:4,5]pyrano[2,3-b]pyridin-7-yl)-3-(3-methoxybenzyl)urea] had an IC50 of 10 to 100 nM. Compound `COc1cccc(CN2CCN(c3ccc4c(c3)OCc3n[nH]cc3-4)C2=O)c1` [Example 14, 1-(2,4-dihydrochromeno[3,4-c]pyrazol-7-yl)-3-(3-methoxybenzyl)imidazolidin-2-one] returned an IC50 of less than 10 nM. `Cc1c(F)cccc1CN1CCN(c2ccc3c(n2)OCc2n[nH]cc2-3)C1=O` [Example 22, 1-(2,4-dihydropyrazolo[4′,3′:4,5]pyrano[2,3-b]pyridin-7-yl)-3-(3-fluoro-2-methylbenzyl)imidazolidin-2-one] registered an IC50 of 10 to 100 nM.

In turn, `COc1cccc(CN2CCN(c3ccc4c(c3)CCc3n[nH]cc3-4)C2=O)c1` [Example 2, 1-(4,5-dihydro-2H-benzo[e]indazol-7-yl)-3-(3-methoxybenzyl)imidazolidin-2-one] yielded an IC50 of less than 10 nM.

On to `COc1cccc(N[C@@H]2CCN(c3ccc4c(c3)CCc3n[nH]cc3-4)C2=O)c1` [Example 9, (R)-1-(4,5-dihydro-2H-benzo[e]indazol-7-yl)-3-((3-methoxyphenyl)amino)pyrrolidin-2-one], for which the IC50 was less than 10 nM. As for `O=C1N(c2ccc3c(c2)CCc2n[nH]cc2-3)CCC12Cc1ccccc1N2` (single isomer, unassigned) [Example 6, 1′-(4,5-dihydro-2H-benzo[e]indazol-7-yl)spiro[indoline-2,3′-pyrrolidin]-2′-one], the figure is less than 10 nM; as for `N#Cc1cccc(NC2CCN(c3ccc4c(n3)OCc3n[nH]cc3-4)C2=O)c1` (racemic) [Example 34, 3-((1-(2,4-dihydropyrazolo[4′,3′:4,5]pyrano[2,3-b]pyridin-7-yl)-2-oxopyrrolidin-3-yl)amino)benzonitrile], 500 to 2000 nM; as for `COc1cccc(CN2CCN(c3ccc4c(n3)OCc3n[nH]cc3-4)C2=O)c1F` [Example 27, 1-(2,4-dihydropyrazolo[4′,3′:4,5]pyrano[2,3-b]pyridin-7-yl)-3-(2-fluoro-3-methoxybenzyl)imidazolidin-2-one], 100 to 500 nM.

(Values after patent publication US10654860B2, “Tricyclic rho kinase inhibitors” (BRISTOL-MYERS SQUIBB COMPANY, priority 2016, dated 2020).)
